Data published in patent US20230248834A1, “DEGRADATION OF (EGFR) BY CONJUGATION OF EGFR INHIBITORS WITH E3 LIGASE LIGAND AND METHODS OF USE” (BEIGENE, LTD., priority 2020, published 2023).

Tests used:
EGFR L858R/C797S = biological target: T1, EGFR L858R/C797S (Homo sapiens, UniProt P00533, C797S/L858R); assay: EGFR degradation HTRF assay in BaF3 LC cells; format: cell-based; settings: BaF3 LC (L858R/C797S), maximum percentage of inhibition (degradation); read-out: BaF3 LC Dmax (%)
T1 construct: expressed in transfected cells; host or cells: BaF3 LC
Protocol: BaF3-LTC(L858R/T790M/C797S) cells and BaF3 LC(L858R/C797S) cells are treated with compounds diluted in 0.2% DMSO cell culture medium and incubate for 16 h, 37° C., 5% CO2. the final concentration of compounds in all assay is start with 10 uM, 5-fold dilution, total 8 doses were included.
After 16 h treatment, add HTRF lysis buffer to each well; seal the plate and incubate 1 hour at room temperature on a plate shaker; Once the cells are lysed, 16 μL of cell lysate are transferred to a PE 384-well HTRF detection plate; 4 μL of pre-mixed HTRF antibodies are added to each well; Cover the plate with a plate sealer, spin 1000 rpm for 1 min, Incubate overnight at room temperature; Read on BMG PheraStar with HTRF protocol (337 nm-665 nm-620 nm).
The inhibition (degradation) percentage of the compound was calculated by the following equation: Inhibition percentage of Compound=100−100×(Signal−low control)/(High control−low control), wherein signal=each test compound group
High control=Cell group with added DMSO and without compound, indicating microplate readings without EGFR degradation;
Dmax is the maximum percentage of inhibition (degradation).
The IC50 (DC50) value of a compound can be obtained by fitting the following equation
Y=Bottom+(TOP−Bottom)/(1+((IC50/X)^hillslope))
Wherein, X and Y are known values, and IC50, Hillslope, Top and Bottom are the parameters obtained by fitting with software. Y is the inhibition percentage (calculated from the equation), X is the concentration of the compound; IC50 is the concentration of the compound when the 50% inhibition is reached. The smaller the IC50 value is, the stronger the inhibitory ability of the compound is. Vice versa, the higher the IC50 value is, the weaker the inhibitory ability of the compound is; Hillslope represents the slope of the fitted curve, generally around 1*; Bottom represents the minimum value of the curve obtained by data fitting, which is generally 0%±20%; Top represents the maximum value of the curve obtained by data fitting, which is generally 100%±20%. The experimental data were fitted by calculating and analyzing with Dotmatics data analysis software.

EGFR L858R/T790M/C797S = biological target: T2, EGFR L858R/T790M/C797S (Homo sapiens, UniProt P00533, C797S/L858R/T790M); assay: EGFR degradation HTRF assay in BaF3-LTC cells; format: cell-based; settings: BaF3-LTC (L858R/T790M/C797S), maximum percentage of inhibition (degradation); read-out: BaF3-LTC Dmax (%)
T2 construct: expressed in transfected cells; host or cells: BaF3-LTC
Summary of the method: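 BaF3 cells expressing EGFR L858R/C797S or L858R/T790M/C797S treated 16 h at 37 °C with compounds (top 10 uM, 5-fold, 8 doses; 0.2% DMSO). Remaining EGFR quantified by HTRF in lysates after overnight antibody incubation. Degradation percentage versus DMSO controls; DC50 from four-parameter fit, Dmax as maximal degradation.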

T1 sequence (P00533 25-1210 C797S/L858R): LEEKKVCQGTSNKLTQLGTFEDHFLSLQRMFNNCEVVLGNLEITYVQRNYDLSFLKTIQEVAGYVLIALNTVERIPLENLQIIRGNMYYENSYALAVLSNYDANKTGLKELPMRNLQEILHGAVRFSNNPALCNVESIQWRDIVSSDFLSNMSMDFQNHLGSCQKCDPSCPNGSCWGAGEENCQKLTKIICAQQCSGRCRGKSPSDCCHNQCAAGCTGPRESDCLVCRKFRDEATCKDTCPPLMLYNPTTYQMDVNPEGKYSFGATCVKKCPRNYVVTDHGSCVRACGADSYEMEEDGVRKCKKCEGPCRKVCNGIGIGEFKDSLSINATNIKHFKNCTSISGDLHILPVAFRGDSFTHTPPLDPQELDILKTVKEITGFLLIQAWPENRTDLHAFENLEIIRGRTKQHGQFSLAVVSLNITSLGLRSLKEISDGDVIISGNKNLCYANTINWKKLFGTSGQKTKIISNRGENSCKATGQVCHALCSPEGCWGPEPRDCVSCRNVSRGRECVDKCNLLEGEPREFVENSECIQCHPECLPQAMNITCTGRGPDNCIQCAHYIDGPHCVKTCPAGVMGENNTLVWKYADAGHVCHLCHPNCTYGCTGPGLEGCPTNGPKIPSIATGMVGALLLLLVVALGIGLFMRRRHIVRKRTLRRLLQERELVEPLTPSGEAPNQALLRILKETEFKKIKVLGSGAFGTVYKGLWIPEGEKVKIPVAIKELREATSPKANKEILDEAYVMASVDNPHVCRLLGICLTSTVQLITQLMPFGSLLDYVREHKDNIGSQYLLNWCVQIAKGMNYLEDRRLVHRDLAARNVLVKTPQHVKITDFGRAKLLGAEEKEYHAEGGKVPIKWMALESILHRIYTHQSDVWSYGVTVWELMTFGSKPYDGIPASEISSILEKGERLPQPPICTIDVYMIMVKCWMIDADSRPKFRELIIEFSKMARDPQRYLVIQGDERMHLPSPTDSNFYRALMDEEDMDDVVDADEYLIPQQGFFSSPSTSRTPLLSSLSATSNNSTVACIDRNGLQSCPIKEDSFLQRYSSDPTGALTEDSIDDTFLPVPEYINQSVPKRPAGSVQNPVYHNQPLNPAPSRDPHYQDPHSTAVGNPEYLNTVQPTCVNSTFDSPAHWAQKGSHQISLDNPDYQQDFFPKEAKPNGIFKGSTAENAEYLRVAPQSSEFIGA
T2 sequence (P00533 25-1210 T790M/C797S/L858R): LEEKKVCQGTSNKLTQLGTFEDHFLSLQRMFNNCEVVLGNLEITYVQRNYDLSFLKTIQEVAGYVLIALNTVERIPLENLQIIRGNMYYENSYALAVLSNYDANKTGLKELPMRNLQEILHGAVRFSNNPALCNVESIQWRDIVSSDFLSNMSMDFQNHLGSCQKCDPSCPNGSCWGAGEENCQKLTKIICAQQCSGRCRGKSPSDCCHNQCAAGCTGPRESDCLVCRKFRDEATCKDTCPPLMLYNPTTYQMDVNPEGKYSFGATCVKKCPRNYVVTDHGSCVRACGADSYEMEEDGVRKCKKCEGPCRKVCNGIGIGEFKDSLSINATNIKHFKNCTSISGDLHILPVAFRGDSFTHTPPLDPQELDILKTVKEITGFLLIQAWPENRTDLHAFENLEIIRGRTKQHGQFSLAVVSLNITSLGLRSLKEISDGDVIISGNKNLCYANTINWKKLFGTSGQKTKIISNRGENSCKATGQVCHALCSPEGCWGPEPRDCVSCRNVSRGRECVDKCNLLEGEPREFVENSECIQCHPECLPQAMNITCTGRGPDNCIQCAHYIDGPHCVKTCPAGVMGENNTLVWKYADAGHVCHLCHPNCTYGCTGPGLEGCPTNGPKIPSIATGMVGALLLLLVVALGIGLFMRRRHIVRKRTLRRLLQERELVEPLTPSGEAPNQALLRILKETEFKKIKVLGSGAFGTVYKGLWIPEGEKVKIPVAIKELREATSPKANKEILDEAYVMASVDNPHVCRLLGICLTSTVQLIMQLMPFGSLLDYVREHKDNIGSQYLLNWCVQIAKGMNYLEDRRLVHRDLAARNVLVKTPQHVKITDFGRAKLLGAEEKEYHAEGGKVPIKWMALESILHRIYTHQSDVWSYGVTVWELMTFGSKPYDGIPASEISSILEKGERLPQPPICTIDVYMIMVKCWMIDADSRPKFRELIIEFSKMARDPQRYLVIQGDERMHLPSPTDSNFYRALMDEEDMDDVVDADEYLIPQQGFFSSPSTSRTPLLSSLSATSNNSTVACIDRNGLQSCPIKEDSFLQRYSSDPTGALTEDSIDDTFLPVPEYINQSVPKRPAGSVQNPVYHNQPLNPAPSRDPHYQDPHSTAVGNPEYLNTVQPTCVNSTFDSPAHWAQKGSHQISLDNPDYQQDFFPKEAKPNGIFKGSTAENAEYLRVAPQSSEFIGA

SMILES | Dmax (EGFR L858R/C797S) | Dmax (EGFR L858R/T790M/C797S)
CCOc1cc(N2CCC(N3CCN(CCc4cccc5c4C(C)(C)C(=O)N5C4CCC(=O)NC4=O)CC3)CC2)c(CC)cc1Nc1ncc(Br)c(Nc2ccc3c(=O)n(CC)ncc3c2P(C)(C)=O)n1 (stereo not drawn) [Example 501, 3-(4-(2-(4-(1-(4-((5-bromo-4-((5-(dimethylphosphoryl)-2-ethyl-1-oxo-1,2-dihydrophthalazin-6-yl)amino)pyrimidin-2-yl)amino)-5-ethoxy-2-ethylphenyl)piperidin-4-yl)piperazin-1-yl)ethyl)-3,3-dimethyl-2-oxoindolin-1-yl)piperidine-2,6-dione] | 93.5% | 83.5%
CCOc1cc(N2CCC(N3CCN(CCc4ccc(F)c5c4oc(=O)n5C4CCC(=O)NC4=O)CC3)CC2)c(CC)cc1Nc1ncc(Br)c(Nc2ccc3nc(CC)ccc3c2P(C)(C)=O)n1 (stereo not drawn) [Example 505, 3-(7-(2-(4-(1-(4-((5-bromo-4-((5-(dimethylphosphoryl)-2-ethylquinolin-6-yl)amino)pyrimidin-2-yl)amino)-5-ethoxy-2-ethylphenyl)piperidin-4-yl)piperazin-1-yl)ethyl)-4-fluoro-2-oxobenzo[d]oxazol-3(2H)-yl)piperidine-2,6-dione] | 83.2% | 75.1%
CCOc1cc(N2CCC(N3CCN(CCc4cccc5c4C4(CC4)C(=O)N5C4CCC(=O)NC4=O)CC3)CC2)c(CC)cc1Nc1ncc(Br)c(Nc2ccc3nc(CC)ccc3c2P(C)(C)=O)n1 (stereo not drawn) [Example 571, 3-(4′-(2-(4-(1-(4-((5-bromo-4-((5-(dimethylphosphoryl)-2-ethylquinolin-6-yl)amino)pyrimidin-2-yl)amino)-5-ethoxy-2-ethylphenyl)piperidin-4-yl)piperazin-1-yl)ethyl)-2′-oxospiro[cyclopropane-1,3′-indolin]-1′-yl)piperidine-2,6-dione] | 87.7% | 93.2%

The next lines start with the values.

Dmax (EGFR L858R/C797S) | Dmax (EGFR L858R/T790M/C797S) | SMILES
91.7% | 98.6% | CCc1ccc2c(P(C)(C)=O)c(Nc3nc(Nc4cc(CC)c(N5CCC(N6CCN(C(=O)C7CN(c8cc(F)c([C@H]9CCC(=O)NC9=O)c(F)c8)C7)CC6)CC5)cc4OC)ncc3Br)ccc2n1 [Example 755, (R)-3-(4-(3-(4-(1-(4-((5-bromo-4-((5-(dimethylphosphoryl)-2-ethylquinolin-6-yl)amino)pyrimidin-2-yl)amino)-2-ethyl-5-methoxyphenyl)piperidin-4-yl)piperazine-1-carbonyl)azetidin-1-yl)-2,6-difluorophenyl)piperidine-2,6-dione]
94.5% | 97% | CCc1cc(Nc2ncc(Br)c(Nc3ccc4c(=O)n(C)ncc4c3P(C)(C)=O)n2)c(OC)cc1N1CCC(N2CCN(CCc3cccc4c3C3(CC3)C(=O)N4C3CCC(=O)NC3=O)CC2)CC1 (stereo not drawn) [Example 756, 3-(4′-(2-(4-(1-(4-((5-bromo-4-((5-(dimethylphosphoryl)-2-methyl-1-oxo-1,2-dihydrophthalazin-6-yl)amino)pyrimidin-2-yl)amino)-2-ethyl-5-methoxyphenyl)piperidin-4-yl)piperazin-1-yl)ethyl)-2′-oxospiro[cyclopropane-1,3′-indolin]-1′-yl)piperidine-2,6-dione]
94.3% | 95.4% | CCc1cc(Nc2ncc(Br)c(Nc3ccc4nc(C)ccc4c3P(C)(C)=O)n2)c(OC)cc1N1CCC(N2CCN(C(=O)[C@@H]3CCN(c4cc(F)c([C@H]5CCC(=O)NC5=O)c(F)c4)C3)CC2)CC1 [Example 750, (R)-3-(4-((R)-3-(4-(1-(4-((5-bromo-4-((5-(dimethylphosphoryl)-2-methylquinolin-6-yl)amino)pyrimidin-2-yl)amino)-2-ethyl-5-methoxyphenyl)piperidin-4-yl)piperazine-1-carbonyl)pyrrolidin-1-yl)-2,6-difluorophenyl)piperidine-2,6-dione]
